According to patent publication US4097596A, “Inhalation therapy for relieving bronchial spasm using quaternary salts of promethazine” (American Home Products Corporation, priority 1976, dated 1978):
“And” between values parts separate entries of the source, which are not always exact repeats. Identical values can stand only once. Counter-ions that a name gives are not always drawn. Like-named read-outs stand apart in the source and are kept apart here.

Assays:
[1] = test system: smooth muscle; details: cited from earlier work
[2] = test system: acetylcholine; assay: Inhibition of acetylcholine-induced bronchoconstriction by aerosol, anesthetized guinea pigs; format: in vivo
Method: (§1) Anesthetized (Pentobarbitol-urethane) guinea pigs were artificially respired at a constant positive air pressure (Starling miniature pump) and changes in tidal air during inspiration were recorded, according to the method of Rosenthale et al., Int. Arch. Pharmacol., 172, 91 (1968). The bronchoconstrictor agents acetylcholine and histamine were administered intravenously at doses of 1 to 30 μg/kg. depending on each animal's sensitivity to these compounds, and control responses to acetylcholine and histamine were thus established. Bronchoconstrictor agents raise the resistance of the lungs to inflation thereby decreasing the tidal air flow. A solution of the test compound was then administered by aerosol, in physiological saline or distilled water, and the animals were then challenged again with acetylcholine or histamine and the degree of inhibition of bronchoconstriction by the test compound was thus determined.

[3] = test system: histamine; assay: Inhibition of histamine-induced bronchoconstriction by aerosol, anesthetized guinea pigs; format: in vivo
Method: as §1

[4] = cited from earlier work
[5] = test system: cholinergic-induced bronchoconstriction; assay: Effect of drugs on cholinergic-induced bronchoconstriction in the cat (aerosol); format: in vivo; details: as cation, mean ± S.E.
Method: Cats of either sex were anesthetized and respiration was arrested by the administration of an intravenous infusion of 1 mg/ml/min of succinylcholine chloride. The animals were artificially respired with a Harvard pump. A neostigmine methylsulfate solution (0.1 mg/ml) was infused intravenously at a rate of 1 ml/min until maximal or complete bronchoconstriction occurred, but the experiment was not begun until a stable state was attained. The respiratory flow was measured with a Fleisch pneumotachograph and a differential pressure transducer. Transpulmonary pressure was measured with a differential pressure transducer bridged between the trachea and the intrapleural space. Pulmonary airway resistance and compliance was measured by a modification of the Mead & Whittenberger electronic subtraction method using the Hewlett-Packard respiratory pre-amplifier or the isovolumetric method using the Buxco Pulmonary mechanics computer [Rosenthale et al., J. Pharmacol. Exp. Ther., 178, 541, (1971)].
Drugs were administered as cation as an aerosol by means of a Monaghan ultrasonic nebulizer. The dosage was varied by adjusting the concentration of the solution. Activity was measured by the ability of the drug to reverse the increased airway resistance and decreased compliance characteristic of cholinergic stimulation induced by succinylcholine and neostigmine.

[6] = 15.0 μg as cation, physiological saline
[7] = 0.15 μg as cation, distilled water
[8] = 1.5 μg as cation, distilled water
[9] = 15.0 μg as cation, distilled water
[10] = 0.1 μg, listed as Promethazine methyl iodide
[11] = 1.0 μg, listed as Promethazine methyl iodide
[12] = 10.0 μg, listed as Promethazine methyl iodide
[13] = 100.0 μg, listed as Promethazine methyl iodide
[14] = 1.5 μg as cation, physiological saline
[15] = 0.1 μg, listed as Promethazine methyl chloride
[16] = 1.0 μg, listed as Promethazine methyl chloride
[17] = 10.0 μg, listed as Promethazine methyl chloride
[18] = 100.0 μg, listed as Promethazine methyl chloride

| SMILES | Mean % Inhibition (±S.E.) vs. Acetylcholine [2, 6] | Mean % Inhibition (±S.E.) vs. Histamine [3, 6] | Mean % Inhibition (±S.E.) vs. Acetylcholine [2, 7] | Mean % Inhibition (±S.E.) vs. Acetylcholine [2, 8] | Mean % Inhibition (±S.E.) vs. Acetylcholine [2, 9] | Mean % Inhibition (±S.E.) vs. Histamine [3, 9] | also measured |
| --- | --- | --- | --- | --- | --- | --- | --- |
| CNC[C@H](O)c1ccc(O)c(O)c1 [epinephrine] |  |  |  |  |  |  | smooth muscle relaxation [1]: smooth muscle relaxant |
| CC(CN1c2ccccc2Sc2ccccc21)[N+](C)(C)C (stereo not drawn) [CH"3 / I, l-Trimethyl[1-Methyl-2-(Phenothiazine-10-yl)Ethyl]Ammonium Iodide] | 81% | 95 (4.66) % |  |  |  |  |  |
| CC(CN1c2ccccc2Sc2ccccc21)[N+](C)(C)C (racemic) [CH3 / Br, dl-Trimethyl[1-Methyl-2-(Phenothiazin-10-yl)Ethyl]Ammonium Bromide] |  |  | 0% | 38.75 (9.26) % | 99.0 (1.0) % |  |  |
| CC(CN1c2ccccc2Sc2ccccc21)[N+](C)(C)C (racemic) [CH3 / NO3, dl-Trimethyl[1-Methyl-2-(Phenothiazin-10-yl)Ethyl]Ammonium Nitrate] |  |  | 12.0 (6.26) % | 43.5 (10.33) % | 100 (0) % |  |  |
| CCC[N+](C)(C)C(C)CN1c2ccccc2Sc2ccccc21 (racemic) [n-C3 H7 / I, dl-N,N,α-Trimethyl-N-n-Propyl-10H-Phenothiazine-10-Ethanaminium Iodide] |  |  | 5.5 (3.20) % | 43.75 (6.51) % | 84.0 (6.56) % | 68.0 (8.14) % |  |
| CC(CN1c2ccccc2Sc2ccccc21)[N+](C)(C)C (stereo not drawn) [CH'3 / I, d-trimethyl[1-methyl-2-(phenothiazin-10-yl)ethyl]ammonium iodide] | 97% | 82% |  |  |  |  |  |
| CC[N+](C)(C)C(C)CN1c2ccccc2Sc2ccccc21 (racemic) [C2 H 5 / I, dl-N-Ethyl-N,N,α-Trimethyl-10H-Phenothiazine-10-Ethanaminium Iodide] |  |  | 20.0 (7.70) % | 62.75 (10.63) % | 98.66 (1.33) % | 78.67 (8.74) % |  |
| CCCC[N+](C)(C)C(C)CN1c2ccccc2Sc2ccccc21 (racemic) [n-C4 H9 / I, dl-N-n-Butyl,N,N,α-Trimethyl-10H-Phenothiazine-10-Ethanaminium Iodide] |  |  | 0% | 39.25 (2.53) % | 52.0 (6.35) % | 66.33 (2.96) % |  |
| Cn1c(=O)c2[nH]cnc2n(C)c1=O [aminophylline] |  |  |  |  |  |  | bronchodilator activity ([4]; aerosol): inactive as a bronchodilator aerosol; bronchial smooth muscle relaxation ([1]; in vitro or by injection in vivo): can relax bronchial smooth muscle in vitro or by injection in vivo |
| CC(CN1c2ccccc2Sc2ccccc21)[N+](C)(C)C (racemic) [CH3 / I, dl-trimethyl[1-methyl-2-(phenothiazin-10-yl)ethyl]ammonium iodide] | 99.0 (1.0) % and 99.3 (0.67) % | 97.5% and 98.66 (1.33) % | 20.0 (13.38) % | 47.0 (7.59) % | 98.66 (1.33) % | 98.0 (1.0) % | Pulmonary Compliance % Protection [5, 10]: 5.8±3.6%; Pulmonary Resistance % Protection [5, 10]: 14.3±1.1%; Duration 50% (time to return to 50% of control constricted state) ([5]; 0.1 μg, methyl chloride done in 3 cats, listed as Promethazine methyl iodide): 6.7 ± 3.2 min; Duration 50% (time to return to 50% of control constricted state) [5, 11]: 11.3 ± 2.0 min; Pulmonary Compliance % Protection [5, 11]: 3.7± .52%; Pulmonary Resistance % Protection [5, 11]: 39.4±2.1%; Duration 50% (time to return to 50% of control constricted state) [5, 12]: 21.2 ± 6.8 min; Pulmonary Compliance % Protection [5, 12]: 15.5±6.0%; Pulmonary Resistance % Protection [5, 12]: 48.5±3.3%; Duration 50% (time to return to 50% of control constricted state) [5, 13]: 46.1 ± 9.7 min; Pulmonary Compliance % Protection [5, 13]: 26.4±4.1%; Pulmonary Resistance % Protection [5, 13]: 78.1±4.4%; Mean % Inhibition (±S.E.) vs. Acetylcholine [2, 14]: 62.38 (4.67) % and 62.75 (11.89) %; Mean % Inhibition (±S.E.) vs. Histamine ([3]; 0.15 μg as cation, physiological saline): 15.33 (6.96) %; Mean % Inhibition (±S.E.) vs. Histamine [3, 14]: 49.0 (11.14) % |
| CC(CN1c2ccccc2Sc2ccccc21)[N+](C)(C)C (racemic) [CH3 / CH3 SO4, dl-Trimethyl[1-Methyl-2-(Phenothiazine-10-yl)Ethyl]Ammonium Methyl Sulfate] | 86% | 98% |  |  |  |  |  |
| CN[C@@H](C)[C@H](O)c1ccccc1 [ephedrine] |  |  |  |  |  |  | bronchodilator activity ([4]; aerosol): not by aerosol; bronchodilator activity ([4]; oral): orally active bronchodilator; smooth muscle relaxation [1]: smooth muscle relaxant |
| CC(CN1c2ccccc2Sc2ccccc21)[N+](C)(C)C (racemic) [CH3 / Cl, dl-Trimethyl[1-Methyl-2-(Phenothiazin-10-yl)Ethyl]Ammonium Chloride] |  |  |  | 24.25 (10.21) % and 26.67 (6.77) % | 86.3 (10.37) % and 100 (0) % | 98.2 (1.8) % | Pulmonary Compliance % Protection [5, 15]: 6.8±4.1%; Pulmonary Resistance % Protection [5, 15]: 8.8±7.7%; Duration 50% (time to return to 50% of control constricted state) ([5]; 0.1 μg, methyl chloride done in 3 cats, listed as Promethazine methyl chloride): 2.7 ± 1.5 min; Duration 50% (time to return to 50% of control constricted state) [5, 16]: > 10 min; Pulmonary Compliance % Protection [5, 16]: 7.8±4.1%; Pulmonary Resistance % Protection [5, 16]: 17.2±2.8%; Duration 50% (time to return to 50% of control constricted state) [5, 17]: 21.0 ± 4.0 min; Pulmonary Compliance % Protection [5, 17]: 71.4±51.1%; Pulmonary Resistance % Protection [5, 17]: 50.0±4.6%; Duration 50% (time to return to 50% of control constricted state) [5, 18]: > 60 min; Pulmonary Compliance % Protection [5, 18]: 60.8±25.7%; Pulmonary Resistance % Protection [5, 18]: 72.8±2.1% |
